Source: patent publication US20050095240A1, “NaCT as a target for lifespan expansion and weight reduction” (Medical College of Georgia Research, priority 2002, published 2005)

Legend:
[1] = molecular target: Phe→Leu mutant of human NaCT (Homo sapiens, UniProt Q86YT5, F500L); test: Citrate uptake via Phe→Leu mutant of human NaCT in HRPE cells; assay type: cell-based; conditions: citrate 20 μM; increasing Li+
[2] = molecular target: chimeric transporter (human NaCT 496-516 replaced with rat NaCT 500-520) (Homo sapiens, UniProt Q86YT5, F500L/T516A); test: Citrate uptake via human/rat chimeric NaCT in HRPE cells; assay type: cell-based; conditions: Li+ 10 mM; citrate 20 μM
mouse NaCT = molecular target: T1, mouse NaCT (Mus musculus, UniProt Q67BT3); test: Transport via mouse NaCT expressed in HRPE cells; assay type: cell-based; conditions: Li+ 2 mM, valproate 0.6 μM, carbamazepine 50 μM
T1 sequence (Q67BT3 1-572): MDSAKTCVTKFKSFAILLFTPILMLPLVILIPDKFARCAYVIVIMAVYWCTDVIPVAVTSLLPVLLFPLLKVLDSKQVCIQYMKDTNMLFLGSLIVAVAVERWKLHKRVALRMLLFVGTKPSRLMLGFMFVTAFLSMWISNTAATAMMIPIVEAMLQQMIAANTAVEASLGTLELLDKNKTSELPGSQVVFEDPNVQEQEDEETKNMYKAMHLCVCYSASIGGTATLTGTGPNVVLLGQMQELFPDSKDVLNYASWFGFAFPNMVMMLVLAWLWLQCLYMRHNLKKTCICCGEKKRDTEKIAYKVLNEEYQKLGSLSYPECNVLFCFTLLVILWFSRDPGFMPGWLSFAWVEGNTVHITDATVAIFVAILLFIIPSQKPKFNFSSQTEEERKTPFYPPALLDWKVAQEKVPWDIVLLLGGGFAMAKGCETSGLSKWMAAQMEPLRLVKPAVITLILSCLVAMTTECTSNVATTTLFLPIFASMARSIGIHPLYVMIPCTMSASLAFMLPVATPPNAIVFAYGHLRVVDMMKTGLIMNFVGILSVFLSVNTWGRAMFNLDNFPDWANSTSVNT

NaCT in Huh-7 cells = molecular target: T2, NaCT in Huh-7 cells (Homo sapiens, UniProt Q86YT5); test: Citrate uptake in Huh-7 cells (constitutively expressed NaCT); assay type: cell-based; conditions: Li+ 2 mM
T2 construct: the effect of Li^+ on constitutively expressed NaCT in human liver cells was studied; endogenous in cells; host or cells: Huh-7 (gift of Dr. Barrie P. Bode)
Protocol: (§1) Uptake measurement in human liver cell lines. The human liver cell lines (HepG2 and Huh-7) were cultured to confluency in 24-well culture plates using appropriate culture medium. The HepG2 cell line was obtained from American Type Culture Collection (Manasses, Va.). The Huh-7 cell line (Bode et al., (2002) Am. J. Physiol. 283, G1062-G1073) was provided by Dr. Barrie P. Bode (St. Louis University, St. Louis, Mo.). Uptake measurements in monolayer cultures of these cells were measured as described above for the heterologously expressed NaCTs.

ceNaCT = molecular target: T3, ceNaCT (Caenorhabditis elegans, UniProt P32739, I91S/L182M); test: Uptake via ceNaCT expressed in HRPE cells; conditions: Li+ 2 mM, valproate 0.6 μM, carbamazepine 50 μM
T3 sequence (P32739 1-551 I91S/L182M): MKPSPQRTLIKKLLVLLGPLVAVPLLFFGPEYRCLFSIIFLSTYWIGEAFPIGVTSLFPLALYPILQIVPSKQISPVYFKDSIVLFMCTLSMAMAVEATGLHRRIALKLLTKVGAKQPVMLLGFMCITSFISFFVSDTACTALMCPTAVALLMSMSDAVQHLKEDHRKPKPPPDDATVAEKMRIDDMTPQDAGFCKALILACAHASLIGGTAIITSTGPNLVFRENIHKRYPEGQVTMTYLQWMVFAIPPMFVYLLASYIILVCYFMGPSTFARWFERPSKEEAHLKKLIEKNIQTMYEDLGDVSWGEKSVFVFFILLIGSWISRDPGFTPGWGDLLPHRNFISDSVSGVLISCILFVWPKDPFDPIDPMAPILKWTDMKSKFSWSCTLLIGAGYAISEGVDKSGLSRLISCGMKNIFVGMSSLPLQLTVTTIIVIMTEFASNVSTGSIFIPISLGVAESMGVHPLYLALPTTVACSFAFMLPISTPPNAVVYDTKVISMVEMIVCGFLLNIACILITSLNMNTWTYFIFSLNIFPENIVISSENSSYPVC

[3] = patients under treatment; cited from earlier work
NaCT in HepG2 cells = molecular target: T4, NaCT in HepG2 cells (Homo sapiens, UniProt Q86YT5); test: Citrate uptake in HepG2 cells (constitutively expressed NaCT); assay type: cell-based; conditions: Li+ 2 mM, valproate 0.6 μM, carbamazepine 50 μM
T4 construct: the effect of Li^+ on constitutively expressed NaCT in human liver cells was studied; host or cells: HepG2
Protocol: as §1

HepG2 cells = test: Incorporation of citrate and acetate into cellular lipids; assay type: cell-based, human; conditions: 24 hours
Source text: The cellular lipids were then extracted by n-hexane/isopropanol (3:2, v/v) as described by Schamagl et al. (Scharnagl et al., (2001) Biochem. Pharmacol. 62, 1545-1555).

human NaCT = human NaCT (Homo sapiens, UniProt Q86YT5); test: Uptake via human NaCT expressed in HRPE cells; assay type: cell-based
rat NaCT = molecular target: T5, rat NaCT (Rattus norvegicus, UniProt Q8CJ44); test: Uptake via rat NaCT expressed in HRPE cells; assay type: cell-based
T5 sequence (Q8CJ44 1-572): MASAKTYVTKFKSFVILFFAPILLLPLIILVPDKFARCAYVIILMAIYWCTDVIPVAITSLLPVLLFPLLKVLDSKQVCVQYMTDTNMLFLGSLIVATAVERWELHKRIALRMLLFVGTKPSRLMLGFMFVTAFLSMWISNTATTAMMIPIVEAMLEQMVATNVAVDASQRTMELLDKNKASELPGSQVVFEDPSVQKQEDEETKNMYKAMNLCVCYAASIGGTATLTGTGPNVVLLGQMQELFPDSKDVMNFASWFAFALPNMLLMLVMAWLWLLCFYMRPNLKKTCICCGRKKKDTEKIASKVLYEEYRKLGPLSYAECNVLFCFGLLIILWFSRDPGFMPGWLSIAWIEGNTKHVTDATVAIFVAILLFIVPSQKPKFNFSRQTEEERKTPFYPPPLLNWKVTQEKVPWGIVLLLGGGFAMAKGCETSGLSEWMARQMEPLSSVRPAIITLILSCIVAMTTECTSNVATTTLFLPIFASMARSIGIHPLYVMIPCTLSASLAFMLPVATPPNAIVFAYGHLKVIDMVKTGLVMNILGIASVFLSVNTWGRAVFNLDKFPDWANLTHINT

zebrafish NaCT = zebrafish NaCT (Danio rerio, UniProt A0A2R8QQN0, K78Q); test: Citrate uptake via zebrafish NaCT expressed in HRPE cells; assay type: cell-based
[4] = Li+ 2 mM, valproate 0.6 μM, carbamazepine 50 μM

Sequence of human NaCT (Q86YT5 whole entry): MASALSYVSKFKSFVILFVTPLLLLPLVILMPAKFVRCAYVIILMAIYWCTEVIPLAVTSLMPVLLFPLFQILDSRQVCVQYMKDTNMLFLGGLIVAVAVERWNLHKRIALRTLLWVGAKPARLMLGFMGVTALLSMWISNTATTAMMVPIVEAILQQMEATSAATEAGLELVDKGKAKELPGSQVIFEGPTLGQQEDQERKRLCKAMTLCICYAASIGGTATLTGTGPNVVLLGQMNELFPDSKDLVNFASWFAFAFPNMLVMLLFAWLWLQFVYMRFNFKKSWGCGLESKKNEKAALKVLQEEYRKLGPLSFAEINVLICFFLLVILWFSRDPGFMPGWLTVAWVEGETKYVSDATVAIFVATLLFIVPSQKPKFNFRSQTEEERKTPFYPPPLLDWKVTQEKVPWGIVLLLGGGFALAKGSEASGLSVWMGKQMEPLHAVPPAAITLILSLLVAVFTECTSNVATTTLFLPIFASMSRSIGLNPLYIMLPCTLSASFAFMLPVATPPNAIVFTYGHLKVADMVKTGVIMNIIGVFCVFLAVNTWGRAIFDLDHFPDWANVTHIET
Sequence of zebrafish NaCT (A0A2R8QQN0 2-582 K78Q): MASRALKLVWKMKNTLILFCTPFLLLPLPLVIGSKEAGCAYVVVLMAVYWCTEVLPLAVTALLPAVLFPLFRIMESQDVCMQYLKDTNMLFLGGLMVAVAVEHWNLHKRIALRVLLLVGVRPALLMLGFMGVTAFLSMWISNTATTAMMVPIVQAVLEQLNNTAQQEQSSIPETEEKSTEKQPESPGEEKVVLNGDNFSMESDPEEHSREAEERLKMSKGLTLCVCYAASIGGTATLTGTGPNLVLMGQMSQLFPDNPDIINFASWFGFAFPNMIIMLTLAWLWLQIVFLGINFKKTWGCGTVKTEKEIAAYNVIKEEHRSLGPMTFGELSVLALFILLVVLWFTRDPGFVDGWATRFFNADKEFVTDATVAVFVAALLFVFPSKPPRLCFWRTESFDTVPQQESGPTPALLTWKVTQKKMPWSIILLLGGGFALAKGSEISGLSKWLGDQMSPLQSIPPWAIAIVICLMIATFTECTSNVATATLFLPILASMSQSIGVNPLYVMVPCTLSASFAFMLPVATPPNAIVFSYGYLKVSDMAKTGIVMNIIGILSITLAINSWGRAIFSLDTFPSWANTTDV
T4 sequence (Q86YT5 whole entry): as the sequence (Q86YT5 whole entry) above
T2 sequence (Q86YT5 whole entry): as above
Sequence of Phe→Leu mutant of human NaCT (Q86YT5 whole entry F500L): as the sequence (Q86YT5 whole entry) above, with F500L counted along it
Sequence of chimeric transporter (human NaCT 496-516 replaced with rat NaCT 500-520) (Q86YT5 whole entry F500L/T516A): as the sequence (Q86YT5 whole entry) above, with F500L, T516A counted along it

Question: For `[Li+]` [Li^+, lithium], which “Effect of Li+ on transport function of the mutant” value [1] is on record?
Answer: Its value is “not affected”.

Question: What about the “Effect of Li+ on activity of the chimeric transporter” value [2] of the same compound?
Answer: Its value is “not affected”.

Question: What about the “Citrate uptake, mNaCT” value (mouse NaCT) of the same compound?
Answer: Its value is 29.4 ± 1.7 pmol/10^6 cells/min.

Question: And the “Citrate uptake, mNaCT, percent of corresponding control” value (mouse NaCT)?
Answer: The value was 69%.

Question: What about the “Citrate uptake, Huh-7 cells” value (NaCT in Huh-7 cells) of the same compound?
Answer: Its value is 20.0 ± 0.5 pmol/min/mg protein.

Question: What about the “Citrate uptake, Huh-7 cells, percent of corresponding control” value (NaCT in Huh-7 cells) of the same compound?
Answer: Its value is 196%.

Question: And the “Citrate uptake, ceNaCT” value (ceNaCT)?
Answer: Its value is 43.6 ± 0.8 pmol/10^6 cells/min.

Question: And the “Citrate uptake, ceNaCT, percent of corresponding control” value (ceNaCT)?
Answer: Its value is 100%.

Question: What about the “Plasma concentrations / therapeutic plasma levels in humans” value [3] of the same compound?
Answer: Its value is 800 to 2000 µM.

Question: And the “Citrate uptake, HepG2 cells” value (NaCT in HepG2 cells)?
Answer: The value was 21.2 ± 0.6 pmol/min/mg protein.

Question: What about the “Citrate uptake, HepG2 cells, percent of corresponding control” value (NaCT in HepG2 cells) of the same compound?
Answer: The value was 222%.

Question: And the “Stimulation of incorporation of [^14C]citrate into lipid fraction” value (HepG2 cells; Li+ 2 mM)?
Answer: The value was 2.6±0.1 fold.

Question: What about the “Effect on incorporation of [^14C]acetate into lipids” value (HepG2 cells; Li+ 2 or 10 mM) of the same compound?
Answer: Its value is “did not have any effect”.

Question: What about the “Increase of affinity for citrate” value (human NaCT; 10 mM Li+) of the same compound?
Answer: The value was “approximately 7 fold”.

Question: What about the “Stimulation of human NaCT by Li+” value (human NaCT; 10 mM Li+, 60 mM Na+) of the same compound?
Answer: The value was 7 fold.

Question: And the “Stimulation of human NaCT by Li+” value (human NaCT; 10 mM Li+, 140 mM Na+)?
Answer: Its value is 3 fold.

Question: And the “Citrate uptake, hNaCT” value (human NaCT; [4])?
Answer: The value was 105.2 ± 11.6 pmol/10^6 cells/min.

Question: What about the “Citrate uptake, hNaCT, percent of corresponding control” value (human NaCT; [4]) of the same compound?
Answer: The value was 203%.

Question: What about the “Stimulation of human NaCT activity” value (human NaCT; Li+ 2.5 mM) of the same compound?
Answer: The value was 2.4 fold.

Question: What about the EC50 (human NaCT; read-out: Concentration of Li+ needed for half-maximal stimulation of citrate uptake, citrate 20 μM) of the same compound?
Answer: Its EC50 is 2100 ± 700 µM.

Question: And the “Citrate uptake, rNaCT” value (rat NaCT; [4])?
Answer: Its value is 92.3 ± 8.4 pmol/10^6 cells/min.

Question: What about the “Citrate uptake, rNaCT, percent of corresponding control” value (rat NaCT; [4]) of the same compound?
Answer: The value was 62%.

Question: What about the IC50 (rat NaCT; read-out: IC50 for inhibition of citrate uptake via rat NaCT, citrate 20 μM) of the same compound?
Answer: Its IC50 is 2100 ± 800 µM.

Question: What about the “Citrate uptake, zfNaCT” value (zebrafish NaCT) of the same compound?
Answer: Its value is 298.0 ± 12.6 (61) pmol/10^6 cells/min.

Question: What about the “Citrate uptake, zfNaCT, percent of corresponding control” value (zebrafish NaCT) of the same compound?
Answer: Its value is 298.0 ± 12.6 (61) percent.
